This is an account of results in publication PMC12101129, “An optimized CYP3A4-activatable fluorogenic sensor for in situ functional imaging and multi-dimensional inhibitor assessment” (Chemical Science, 2025).

The subject of one series is CYP3A. Put plainly: CYP3A inhibition assay in mouse liver microsomes. The format is biochemical. The following applies: MLMs. In general terms: Liver microsomes are vesicles of endoplasmic reticulum, rich in cytochrome P450 enzymes.
A further series concerns CYP3A4. Put plainly: Liver organ imaging in the presence of CYP3A4 inhibitor. The following applies: male, C57BL/6J, mouse, isolated liver tissue, probe NCN (50 µM); read-out: residual activity of hepatic CYP3A4. More on the design: species or system mice. The protocol:
dose group (CCl4-L, 0.15%), and CCl4 high dose group (CCl4-H, 0.3%). CCl4 was dissolved in vegetable oil and administered via intraperitoneal injection. After that, mice were fasted and allowed to drink water freely. After 18 h, blood samples were collected to determine the level of ALT and AST, while liver tissues were collected and washed with PBS. Then, the liver tissues were soaked 30 min in a solution containing NCN (50 μM, 5 mL) for fluorescent imaging. After organ imaging, the tissues were ground, and centrifuged, and the supernatant was diluted with 10-fold acetonitrile to precipitate the protein. After centrifugation again, the supernatant was determined to quantify the level of HNCN.
1.15. Bio-safety assessment of NCN in healthy mice
Sixteen C57BL/6J mice (8 males and 8 females, 6 weeks) were randomly assigned into two groups (4 males and 4 females). All mice were subjected to adaptive feeding for 7 d before the experiment. […] Mice organs were weighed and the organ index was calculated, and hematoxylin and eosin (H&E) stains were provided by Shanghai Ruibaohe Biotechnology Co., Ltd. […]
After that, the liver tissues were removed, and fluorescence imaging of the liver was performed using VISQUE Invivo Smart-LF. […]
quantify the levels of HNCN. […]
fluorescence intensity of the control (solvent only)) × 100%. […]

One may read the IC50 as the concentration that gives 50% inhibition. A high value points to weaker potency in that assay. Consider `CC(=O)N1CCN(c2ccc(OCC3COC(Cn4ccnc4)(c4ccc(Cl)cc4Cl)O3)cc2)CC1` (centres unmarked) [KCZ, ketoconazole], for which the IC50 in the series with CYP3A came out at […]. Also, the activity at 1 h, 1 µM in the series with CYP3A4 is ~20%.
